Experimental data from patent EP2501821B1, “PROCESS FOR PRODUCING PRIMYCIN, PRIMYCIN COMPONENT(S), PRECURSORS AND METABOLITES THEREOF VIA FEMENTATION BY THE USE OF BACTERIAL SPECIES SACCHAROMONOSPORA AZUREA” (Pannonpharma Gyógyszergyártó Kft., priority 2009, dated 2011).

Assays:
[1] = test system: Bacillus sp.; assay: primycin MIC, antimicrobial spectrum re-evaluation; type: cell-based; details: culture collection strains
Source text: (§1) In our research leading to our new findings we assayed the antimicrobial spectrum of primycin in order to re-evaluate the minimal inhibitory concentration (MIC) values known from the literature and to determine the primycin susceptibility of new isolates. Comparative test results on strains of Gram-positive bacterial species of Microbial strain culture collection of PTE TTK BI Department of General and Environmental Microbiology were in agreement with the literature data with primycin MIC values of 0.06 mg/L for Staphylococcus sp. and 0.03 mg/L for Bacillus sp. respectively. Primycin MIC values higher than 1 mg/L for any of the Gram-positive strains tested were not detected.

[2] = test system: Staphylococcus sp.; assay: primycin MIC, antimicrobial spectrum re-evaluation; type: cell-based; details: culture collection strains
Source text: as §1

[3] = test system: Gram-positive strains; assay: primycin MIC, antimicrobial spectrum re-evaluation; type: cell-based, Gram-positive bacterial species; details: any of the Gram-positive strains tested
Source text: as §1

[4] = test system: Gram-negative species; assay: primycin antimicrobial spectrum re-evaluation; type: cell-based
Source text: as §1

[5] = test system: strains of species belonging to Saccharomonospora genus; assay: primycin MIC (primycin tolerance); type: cell-based
[6] = test system: S. cyanea (44106); assay: primycin MIC (primycin tolerance); type: cell-based; details: S. cyanea DSM 44106
Procedure: (§2) Strains were grown for seven days and once the colonies were removed and extracted, they were tested for antimicrobial production in agar diffusion tests. […] For this comparison we repeatedly used the strains of the culture collection of Department which had preliminary been tested for primycin susceptibility. Our work hypothesis was further supported by our experience that a butanol-ethanol-water mixture (in the ratio of 1:1:2 respectively) which is an effective solvent of primycin was suitable for the extraction of the antibiotic. […] Thereafter we carried out shake flask fermentations with the Saccharomonospora sp. strains suitable for the process. Production results on shake flasks of the strains tested were congruent to their cultivations on solid media. […] Table 1. Primycin tolerance and antibiotic production of Saccharomonospora isolates. *: S. azurea strains identified and registered on the name S. caesia earlier: […]

[7] = test system: S. glauca (43769); assay: primycin MIC (primycin tolerance); type: cell-based; details: S. glauca DSM 43769
Procedure: as §2

[8] = test system: S. viridis (43017); assay: primycin MIC (primycin tolerance); type: cell-based; details: S. viridis DSM 43017
Procedure: as §2

[9] = test system: S. xinjiangensis (44391); assay: primycin MIC (primycin tolerance); type: cell-based; details: S. xinjiangensis DSM 44391
Procedure: as §2

[10] = test system: Saccharomonospora azurea (caesia) DSM 43044; assay: primycin MIC (primycin tolerance); type: cell-based; details: S. azurea (caesia) DSM 43044
Procedure: as §2

[11] = test system: Saccharomonospora azurea (caesia) DSM 43068; assay: primycin MIC (primycin tolerance); type: cell-based; details: S. azurea (caesia) DSM 43068
Procedure: as §2

[12] = test system: Saccharomonospora azurea (caesia) DSM 43680; assay: primycin MIC (primycin tolerance); type: cell-based; details: S. azurea (caesia) DSM 43680
Procedure: as §2

[13] = test system: Saccharomonospora azurea DSM 44631; assay: primycin MIC (primycin tolerance); type: cell-based; details: S. azurea DSM 44631
Procedure: as §2

[14] = test system: Saccharomonospora aurea strains; assay: primycin MIC (primycin tolerance), summary statement; type: cell-based
Source text: As it is known that antibiotic-producing strains are less susceptible to the antibiotic produced by themselves and the primordials of the existing primycin-producing strain also was selected by primycin tolerance level to enhance their production capability, it has been suspected that lowered primycin susceptibility of Saccharomonospora azurea strains can be the outcome of the production of an antibiotic with a mode of action analogue to that of primycin. The literature concordantly states that primycin has a unique mode of action, therefore it could be suspected from our surprising findings that the antibiotic supposedly produced by these strains can be primycin itself. However, there is no literature on primycin production of Saccharomonospora azurea or any other presently accepted species of Saccharomonospora genera.

[15] = test system: Staphylococcus aureus (50 strains); details: broth dilution assay; cited from earlier work
[16] = test system: Staphylococcus epidermidis (77 strains); details: broth dilution assay; cited from earlier work
[17] = test system: Streptococcus faecalis (76 strains); details: broth dilution assay; cited from earlier work
[18] = test system: one strain of Listeria monocytogenes; details: broth dilution assay; cited from earlier work
[19] = in water; cited from earlier work
[20] = test system: Gram-positive bacteria and Mycobacterium species; details: cited from earlier work
[21] = test system: in vitro cell cultures; details: cited from earlier work

primycin
MIC [1]: 0.03 µg/mL
MIC [2]: 0.06 µg/mL
MIC [3]: ≤ 1 µg/mL
effectiveness [4]: did not prove to be effective
MIC [5]: 8 to 64 µg/mL
Primycin MIC [6]: 8 µg/mL
Primycin MIC [7]: 8 µg/mL
Primycin MIC [8]: 0,5 mg/L
Primycin MIC [9]: 1 µg/mL
Primycin MIC [10]: 64 µg/mL
Primycin MIC [11]: 64 µg/mL
Primycin MIC [12]: 64 µg/mL
Primycin MIC [13]: 64 µg/mL
MIC [14]: 64 µg/mL
minimal inhibitory concentrations (MIC) [15]: 0.12 to 0.5 µg/mL
minimal inhibitory concentrations (MIC) [16]: 0.12 to 0.5 µg/mL
minimal inhibitory concentrations (MIC) [17]: 0.12 to 0.5 µg/mL
minimal inhibitory concentrations (MIC) [18]: 0.12 to 0.5 µg/mL
solubility [19]: poorly soluble in water
bacteriostatic effect [20]: has bacteriostatic effect
toxicity [21]: not shown to be toxic
